Source: US8765773B2, “Substituted hydroxamic acids and uses thereof” (Millennium Pharmaceuticals, Inc., priority 2010, dated 2014)

What follows are compounds tested against T1, purified human HDAC6 (Homo sapiens, UniProt Q9UBN7) (assay: HDAC6 Enzyme Assay). Details: compound concentration 0.37 μM, read-out: Percent Inhibition.
T1 construct: purchased BPS Bioscience 5006
T1 sequence (Q9UBN7 1-1215): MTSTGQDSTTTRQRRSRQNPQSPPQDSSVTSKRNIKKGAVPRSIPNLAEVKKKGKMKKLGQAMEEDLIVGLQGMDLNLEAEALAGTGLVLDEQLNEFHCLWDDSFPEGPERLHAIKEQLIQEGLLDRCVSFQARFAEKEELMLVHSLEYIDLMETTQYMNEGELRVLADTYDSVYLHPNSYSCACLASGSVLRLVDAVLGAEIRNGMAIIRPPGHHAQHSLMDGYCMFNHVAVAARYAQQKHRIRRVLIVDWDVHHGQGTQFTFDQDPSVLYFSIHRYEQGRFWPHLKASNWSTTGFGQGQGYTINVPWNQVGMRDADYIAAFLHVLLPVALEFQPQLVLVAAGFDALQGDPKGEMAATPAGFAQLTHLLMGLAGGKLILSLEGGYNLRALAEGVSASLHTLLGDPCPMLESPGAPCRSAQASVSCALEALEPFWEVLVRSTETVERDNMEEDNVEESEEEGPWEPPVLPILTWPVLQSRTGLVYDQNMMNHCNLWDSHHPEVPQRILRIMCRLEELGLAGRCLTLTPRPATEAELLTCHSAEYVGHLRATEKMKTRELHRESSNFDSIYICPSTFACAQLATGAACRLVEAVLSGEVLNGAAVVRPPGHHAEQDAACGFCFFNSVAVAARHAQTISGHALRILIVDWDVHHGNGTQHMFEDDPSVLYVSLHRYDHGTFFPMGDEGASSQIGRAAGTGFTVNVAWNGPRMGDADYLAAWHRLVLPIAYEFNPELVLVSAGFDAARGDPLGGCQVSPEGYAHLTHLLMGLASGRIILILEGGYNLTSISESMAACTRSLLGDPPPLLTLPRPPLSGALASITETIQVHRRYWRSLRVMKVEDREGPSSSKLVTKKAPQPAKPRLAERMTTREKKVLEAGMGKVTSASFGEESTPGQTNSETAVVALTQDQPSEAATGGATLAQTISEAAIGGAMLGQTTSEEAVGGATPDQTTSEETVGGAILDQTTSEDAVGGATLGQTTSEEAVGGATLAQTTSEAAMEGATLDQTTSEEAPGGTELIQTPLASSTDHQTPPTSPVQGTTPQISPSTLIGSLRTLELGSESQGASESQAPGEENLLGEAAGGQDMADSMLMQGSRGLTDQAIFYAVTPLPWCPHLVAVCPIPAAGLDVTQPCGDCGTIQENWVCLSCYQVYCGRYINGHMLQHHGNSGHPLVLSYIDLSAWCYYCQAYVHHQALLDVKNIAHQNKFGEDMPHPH
Format: biochemical
Method in brief: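 Purified human HDAC6 incubated 1 h at 30° C with Ac-Arg-Gly-Lys(Ac)-AMC peptide plus compound or DMSO; stopped with trichostatin A. Deacetylated product trypsin-digested, released AMC read by fluorescence (Ex 340/Em 460 nm). Percent inhibition at one concentration or IC50 from curves relative to DMSO controls.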
In the case of `CC1(C(=O)Nc2cccc(Cn3ccc4ccc(C(=O)NO)cc4c3=O)c2)CCNCC1` [Compound I-215, N-hydroxy-2-(3-{[(4-methylpiperidin-4-yl)carbonyl]amino}benzyl)-1-oxo-1,2-dihydroisoquinoline-7-carboxamide], the inhibition at 0.37 µM is reported as 100%. `CS(=O)(=O)c1cccc(CCn2cnc3ccc(C(=O)NO)cc3c2=O)c1` [Compound I-216, N-hydroxy-3-{2-[3-(methylsulfonyl)phenyl]ethyl}-4-oxo-3,4-dihydroquinazoline-6-carboxamide] showed an inhibition at 0.37 µM of 85.7%. In the case of `O=C(NO)c1ccc2ncn(CCc3cccc(-c4ccncc4)c3)c(=O)c2c1` [Compound I-220, N-hydroxy-4-oxo-3-[2-(3-pyridin-4-ylphenyl)ethyl]-3,4-dihydroquinazoline-6-carboxamide], the inhibition at 0.37 µM is reported as 98.3%. Work on `CC(c1ccccc1C(F)(F)F)n1ccc2ccc(C(=O)NO)cc2c1=O` (stereo not shown) [Compound I-224, N-hydroxy-1-oxo-2-{1-[2-(trifluoromethyl)phenyl]ethyl}-1,2-dihydroisoquinoline-7-carboxamide] yielded an inhibition at 0.37 µM of 96.3%. Work on `CC(C)(C)C(=O)Nc1ncccc1-c1cccc(Cn2cnc3ccc(C(=O)NO)cc3c2=O)c1` [Compound I-230, 3-(3-{2-[(2,2-dimethylpropanoyl)amino]pyridin-3-yl}benzyl)-N-hydroxy-4-oxo-3,4-dihydroquinazoline-6-carboxamide] yielded an inhibition at 0.37 µM of 92.4%. Work on `O=C(NO)c1ccc2c(=O)n(Cc3ccc(C(F)(F)F)cc3)c(-c3cnc(N4CCOCC4)s3)nc2c1` [Compound I-237, N-hydroxy-2-(2-morpholin-4-yl-1,3-thiazol-5-yl)-4-oxo-3-[4-(trifluoromethyl)benzyl]-3,4-dihydroquinazoline-7-carboxamide] yielded an inhibition at 0.37 µM of 88%.

Same assay, conditions: compound concentration 0.412 μM, read-out: Percent Inhibition
In the case of `O=C(NO)c1ccc2ccn(CCNS(=O)(=O)c3ccc(Cl)cc3)c(=O)c2c1` [Compound I-213, 2-(2-{[(4-chlorophenyl)sulfonyl]amino}ethyl)-N-hydroxy-1-oxo-1,2-dihydroisoquinoline-7-carboxamide], the inhibition at 0.412 µM is reported as 94%. `CC(C)c1nc2cc(C(=O)NO)ccc2c(=O)[nH]1` [Compound I-214, N-hydroxy-2-isopropyl-4-oxo-3,4-dihydroquinazoline-7-carboxamide] gave an inhibition at 0.412 µM of 65.8%. With `O=C(NO)c1ccc2ccn(Cc3cc(C(F)(F)F)ccc3C(F)(F)F)c(=O)c2c1` [Compound I-217, 2-[2,5-bis(trifluoromethyl)benzyl]-N-hydroxy-1-oxo-1,2-dihydroisoquinoline-7-carboxamide] the inhibition at 0.412 µM was 99.4%. `CCOCCn1ccc2ccc(C(=O)NO)cc2c1=O` [Compound I-218, 2-(2-ethoxyethyl)-N-hydroxy-1-oxo-1,2-dihydroisoquinoline-7-carboxamide] was tested, and the inhibition at 0.412 µM was 90.4%. With `O=C(NO)c1ccc2ccn(Cc3ccccc3)c(=O)c2c1` [Compound I-219, 2-benzyl-N-hydroxy-1-oxo-1,2-dihydroisoquinoline-7-carboxamide] the inhibition at 0.412 µM was 94.1%. With `COc1ccc(-n2ccc3ccc(C(=O)NO)cc3c2=O)cc1` [Compound I-221, N-hydroxy-2-(4-methoxyphenyl)-1-oxo-1,2-dihydroisoquinoline-7-carboxamide] the inhibition at 0.412 µM was 88.1%. In the case of `O=C(NO)c1ccc2ccn(Cc3ccc(F)cc3F)c(=O)c2c1` [Compound I-222, 2-(2,4-difluorobenzyl)-N-hydroxy-1-oxo-1,2-dihydroisoquinoline-7-carboxamide], the inhibition at 0.412 µM is reported as 94.6%. In the case of `O=C(NO)c1ccc2ccn(Cc3ccc(-n4cncn4)cc3)c(=O)c2c1` [Compound I-223, N-hydroxy-1-oxo-2-[4-(1H-1,2,4-triazol-1-yl)benzyl]-1,2-dihydroisoquinoline-7-carboxamide], the inhibition at 0.412 µM is reported as 94.9%. In the case of `COc1ccc2ccc(OCc3nc4cc(C(=O)NO)ccc4c(=O)[nH]3)cc2c1` [Compound I-225, N-hydroxy-2-{[(7-methoxy-2-naphthyl)oxy]methyl}-4-oxo-3,4-dihydroquinazoline-7-carboxamide], the inhibition at 0.412 µM is reported as 40.3%. In the case of `CCOCCn1cnc2ccc(C(=O)NO)cc2c1=O` [Compound I-226, 3-(2-ethoxyethyl)-N-hydroxy-4-oxo-3,4-dihydroquinazoline-6-carboxamide], the inhibition at 0.412 µM is reported as 84.5%. `O=C(NO)c1ccc2ccn(CCCOc3ccccc3Cl)c(=O)c2c1` [Compound I-227, 2-[3-(2-chlorophenoxy)propyl]-N-hydroxy-1-oxo-1,2-dihydroisoquinoline-7-carboxamide] showed an inhibition at 0.412 µM of 93.7%. In the case of `COCCOCCn1ccc2ccc(C(=O)NO)cc2c1=O` [Compound I-228, N-hydroxy-2-[2-(2-methoxyethoxy)ethyl]-1-oxo-1,2-dihydroisoquinoline-7-carboxamide], the inhibition at 0.412 µM is reported as 86.9%. With `COc1ccc(N(CCn2ccc3ccc(C(=O)NO)cc3c2=O)Cc2ccc(Cl)cc2)cc1` [Compound I-229, 2-{2-[(4-chlorobenzyl)(4-methoxyphenyl)amino]ethyl}-N-hydroxy-1-oxo-1,2-dihydroisoquinoline-7-carboxamide] the inhibition at 0.412 µM was 83.2%. In the case of `COc1ccc2ccc(OCCCn3ccc4ccc(C(=O)NO)cc4c3=O)cc2c1` [Compound I-231, N-hydroxy-2-{3-[(7-methoxy-2-naphthyl)oxy]propyl}-1-oxo-1,2-dihydroisoquinoline-7-carboxamide], the inhibition at 0.412 µM is reported as 94.8%. Compound `O=C(NO)c1ccc2cc[nH]c(=O)c2c1` [Compound I-232, N-hydroxy-1-oxo-1,2-dihydroisoquinoline-7-carboxamide] has an inhibition at 0.412 µM of 70.9%. Compound `O=C(NO)c1ccc2c(=O)[nH]c(COc3ccccc3-n3cccc3)nc2c1` [Compound I-233, N-hydroxy-4-oxo-2-{[2-(1H-pyrrol-1-yl)phenoxy]methyl}-3,4-dihydroquinazoline-7-carboxamide] has an inhibition at 0.412 µM of 91.1%. In the case of `Cc1nn(-c2ccccc2)nc1Cn1ccc2ccc(C(=O)NO)cc2c1=O` [Compound I-234, N-hydroxy-2-[(5-methyl-2-phenyl-2H-1,2,3-triazol-4-yl)methyl]-1-oxo-1,2-dihydroisoquinoline-7-carboxamide], the inhibition at 0.412 µM is reported as 98.6%. With `O=C(NO)c1ccc2ccn(CCCOc3ccc(Oc4ccccc4)cc3)c(=O)c2c1` [Compound I-235, N-hydroxy-1-oxo-2-[3-(4-phenoxyphenoxy)propyl]-1,2-dihydroisoquinoline-7-carboxamide] the inhibition at 0.412 µM was 87.5%. Compound `O=C(NO)c1ccc2ccn(CCc3ccc(Cl)cc3)c(=O)c2c1` [Compound I-236, 2-[2-(4-chlorophenyl)ethyl]-N-hydroxy-1-oxo-1,2-dihydroisoquinoline-7-carboxamide] has an inhibition at 0.412 µM of 96.2%. `O=C(NO)c1ccc2c(=O)n(Cc3ccccc3)c(NCc3ccc(Cl)cc3)nc2c1` [Compound I-238, 3-benzyl-2-[(4-chlorobenzyl)amino]-N-hydroxy-4-oxo-3,4-dihydroquinazoline-7-carboxamide] was tested, and the inhibition at 0.412 µM was 86.2%. Compound `O=C(NO)c1ccc2ncn(CCCc3ccccc3)c(=O)c2c1` [Compound I-239, N-hydroxy-4-oxo-3-(3-phenylpropyl)-3,4-dihydroquinazoline-6-carboxamide] has an inhibition at 0.412 µM of 93.8%. Work on `COc1ccccc1OCCCn1ccc2ccc(C(=O)NO)cc2c1=O` [Compound I-240, N-hydroxy-2-[3-(2-methoxyphenoxy)propyl]-1-oxo-1,2-dihydroisoquinoline-7-carboxamide] yielded an inhibition at 0.412 µM of 96%.
